The assay concerns primary CLL samples (CD19+ and CD5+ cells). As to the kind of experiment: High-throughput dynamic BH3 profiling (HT-DBP): drug-induced apoptotic priming (delta priming), cytochrome c release after BH3 peptide. The class given is cell-based, human. The method, then: By “delta priming” is meant the difference in priming of a cell for apoptosis measured in the presence of an agent for treating chronic lymphocytic leukemia relative to priming of the cell in the presence of an inert carrier. In embodiments, the inert carrier is DMSO.
Dynamic BH3 Profiling Dynamic BH3 profiling (DBP) is a drug screening assay that measures the relative priming of cells in a biological sample for cell death by apoptosis in the presence of a specific compound and/or a pro-apoptotic peptide. By “Dynamic BH3 profiling” is meant measuring drug-induced changes in mitochondrial apoptotic priming. Mitochondrial apoptotic priming is a measure of how close to the apoptotic threshold a cell is. A highly primed cell has relatively less anti-apoptotic binding site availability and is closer to the apoptotic threshold than a poorly primed cell, which has more anti-apoptotic availability to buffer an apoptotic assault and is further from the apoptotic threshold. BH3 peptides derived from the BH3 domain of pro-apoptotic BH3-only proteins provoke a response from viable mitochondria. Cytochrome c released from the mitochondria after a short incubation with BH3 peptide is used as a surrogate for priming. In general, the more sensitive a mitochondrion is to a BH3 peptide, the more primed it is. A drug treatment that enhances priming will cause mitochondria to undergo MOMP more easily when incubated with a fixed concentration of a promiscuously binding BH3 peptide, such as BIM BH3 peptide, compared to control-treated cells. See, for example, Potter, D. S. & Letai, A. To prime, or not to prime: that is the question. Cold Spring Harb. Symp. Quant. Biol. 81, 131-140 (2016); Montero, J. et al. Drug-induced death signaling strategy rapidly predicts cancer response to chemotherapy. Cell 160, 977-989 (2015); Daniels, V. W. et al. Metabolic perturbations sensitize triple-negative breast cancers to apoptosis induced by BH3 mimetics. Sci.
Dynamic BH3 profiling and peptides for use therein are described, for example, in Certo, et al., “Mitochondria primed by death signals determine cellular addiction to antiapoptotic BCL-2 family members,” Cancer Cell, 9:351-365 (2006); and in Foight, et al. “Designed BH3 Peptides with High Affinity and Specificity for Targeting Mcl-1 in Cells,” ACS Chemical Biology, 9:1962-1968 (2014), the disclosures of which are incorporated herein by reference in their entireties for all purposes. The DBP assay enables one to compare the response of a patient tumor sample to a specific drug relative to other drugs and relative to an inert control (e.g., DMSO).
To address the challenge of selecting a proper treatment for a chronic lymphocytic leukemia, experiments were undertaken to optimize high-throughput dynamic BH3 profiling (HT-DBP) for evaluation of the drug sensitivities of CLL samples (FIGS. 1, 13, 5A, 5B, 6A, 6B, and 7A-7C).

Setting [1] is: peptide PUMA 1 uM, feature EC-m2.
Where [2] appears, read: peptide PUMA 1 uM, feature loss_6q21.
[3] abbreviates: peptide PUMA 1 uM, feature loss_7p22.2.
Where [4] appears, read: peptide MS1 2.5 uM, feature ITIH2.
[5] abbreviates: peptide BIM 0.01 uM, feature FBXW7.
The mark [6] stands for this setting: peptide BIM 0.01 uM, feature gain_19p13.3.

Consider six molecules from patent US20250255889A1, “METHODS FOR TREATMENT SELECTION FOR CHRONIC LYMPHOCYTIC LEUKEMIA (CLL)” (The Broad Institute, Inc., priority 2022, published 2025).

Regarding `Cc1c(-c2ccc(N3CCc4cccc(C(=O)Nc5nc6ccccc6s5)c4C3)nc2C(=O)O)cnn1CC12CC3CC(CC(C3)C1)C2` [A-1331852], the direction result is reported as “Resistant” (Feature EC-m2); “Sensitive” (peptide BAD 0.3 uM, feature CNOT3); “Resistant” (peptide BIM 0.01 uM, feature CARD11); “Sensitive” (peptide BIM 0.01 uM, feature EC-u2); “Resistant” (peptide BIM 0.01 uM, feature MYD88); “Sensitive” (peptide PUMA 1 uM, feature CNOT3). The direction result is recorded as “Resistant” under setting [1] and “Resistant” under setting [2].
As for `Cc1c2c(nn1C)CSCc1cc(n(C)n1)CSc1cc(c3ccccc3c1)OCCCc1c(C(=O)O)n(C)c3c-2c(Cl)ccc13` [AZD5991], the direction entry reads like this: (Feature EC-i) “Sensitive”; (Feature loss_3p13) “Sensitive”; (peptide BAD 0.3 uM, feature EC-i) “Sensitive”; (peptide BAD 0.3 uM, feature POT1) “Sensitive”; (peptide BAD 0.3 uM, feature loss_1q42.13) “Sensitive”; (peptide BAD 0.3 uM, feature loss_7p22.2) “Sensitive”. The direction entry by setting is: (peptide BAD 0.3 uM, feature loss_14q32.12) “Sensitive”; (peptide BAD 0.3 uM, feature loss_16p11.2) “Sensitive”; (peptide BIM 0.01 uM, feature ANK1) “Sensitive”; (peptide BIM 0.01 uM, feature loss_1p36.11) “Sensitive”; (peptide BIM 0.01 uM, feature loss_3p13) “Sensitive”; (peptide BIM 0.01 uM, feature loss_15q26.1) “Sensitive”. Further, the direction entry was “Sensitive” (peptide BIM 0.01 uM, feature loss_18q21.2); “Sensitive” (peptide MS1 2.5 uM, feature CNOT3); “Sensitive” (peptide PUMA 1 uM, feature BIRC3); “Sensitive” (peptide PUMA 1 uM, feature EC-i); “Sensitive” (peptide PUMA 1 uM, feature loss_1q42.13); “Sensitive” under setting [3]. Further, the direction entry is listed as “Sensitive” (peptide PUMA 1 uM, feature loss_9p21.3); “Sensitive” (peptide PUMA 1 uM, feature loss_16p11.2); “Sensitive” (peptide PUMA 1 uM, feature loss_17q11.2).
Regarding `COc1ccc(-c2ccc3c(N4CCOC[C@@H]4C)nc(N4CCOC[C@@H]4C)nc3n2)cc1CO` [AZD8055], the direction result was “Resistant” (peptide MS1 2.5 uM, feature IGLV321_R110); “Resistant” (peptide MS1 2.5 uM, feature NOTCH1); “Resistant” (peptide MS1 2.5 uM, feature RPS15); “Resistant” (peptide MS1 2.5 uM, feature loss_1p36.11); “Resistant” (peptide MS1 2.5 uM, feature loss_3p13); “Resistant” (peptide MS1 2.5 uM, feature loss_6q). Moreover, for the setting “peptide MS1 2.5 uM, feature loss_18q21.2”, the direction result is listed as “Resistant”.
As for `CN(C)Cc1c(C(=O)NCCOc2ccc(C(=O)NO)cc2)oc2ccccc12` [Abexinostat], for the setting “across CLL subtypes, 65 primary CLL samples, 20 hours drug”, the drug-induced apoptotic priming entry is “high priming”. In addition, under “cases where patients would be likely resistant to Nutlin 3, MK-2206 and Zanubrutinib”, the “efficacy by DBP response” value is “effective”. Moreover, the direction entry is, setting by setting: (peptide BAD 0.3 uM, feature EC-m2) “Sensitive”; (peptide BIM 0.01 uM, feature CNOT3) “Sensitive”; (peptide BIM 0.01 uM, feature EC-m2) “Sensitive”; (peptide BIM 0.01 uM, feature loss_17q23.1) “Sensitive”; (peptide BIM 0.01 uM, feature priortrt_Post) “Sensitive”; (peptide MS1 2.5 uM, feature FBXW7) “Sensitive”. The direction entry is given as “Sensitive” under setting [4]; “Sensitive” (peptide MS1 2.5 uM, feature priortrt_Post); “Sensitive” under setting [1]; “Sensitive” under setting [2]; “Sensitive” (peptide PUMA 1 uM, feature loss_17q23.1).
As to `CC(C)c1c(C(=O)Nc2ccccc2)c(-c2ccccc2)c(-c2ccc(F)cc2)n1CC[C@@H](O)C[C@@H](O)CC(=O)O` [Atorvastatin], the direction entry is “Sensitive” (peptide BAD 0.3 uM, feature EC-u1); “Sensitive” (peptide BAD 0.3 uM, feature FBXW7); “Resistant” (peptide BAD 0.3 uM, feature M-CLL); “Sensitive” (peptide BAD 0.3 uM, feature RFX7); “Sensitive” (peptide BAD 0.3 uM, feature U-CLL); “Sensitive” (peptide BAD 0.3 uM, feature ZMYM3). The direction entry is “Sensitive” (peptide BAD 0.3 uM, feature gain_19p13.3); “Resistant” (peptide BAD 0.3 uM, feature m-CLL); “Sensitive” (peptide BAD 0.3 uM, feature n-CLL); “Resistant” (peptide BIM 0.01 uM, feature EC-u1); “Resistant” under setting [5]; “Resistant” (peptide BIM 0.01 uM, feature RFX7). Also, the direction entry is, setting by setting: (peptide BIM 0.01 uM, feature ZMYM3) “Resistant”; under setting [6], “Resistant”; (peptide BIM 0.01 uM, feature loss_2q31.1) “Resistant”; (peptide BIM 0.01 uM, feature loss_10p12.2) “Resistant”; (peptide BIM 0.01 uM, feature loss_10q24.2) “Resistant”; (peptide BIM 0.01 uM, feature n-CLL) “Resistant”. For the same molecule, the direction result is “Resistant” (peptide MS1 2.5 uM, feature RFX7); “Resistant” (peptide MS1 2.5 uM, feature ZMYM3); “Resistant” (peptide MS1 2.5 uM, feature loss_2q31.1); “Resistant” (peptide MS1 2.5 uM, feature loss_10p12.2); “Resistant” (peptide MS1 2.5 uM, feature loss_10q24.2); “Resistant” (peptide MS1 2.5 uM, feature loss_11q22.3). The direction entry is, setting by setting: (peptide MS1 2.5 uM, feature n-CLL) “Resistant”; (peptide PUMA 1 uM, feature FBXW7) “Resistant”; (peptide PUMA 1 uM, feature RFX7) “Resistant”; (peptide PUMA 1 uM, feature ZMYM3) “Resistant”; (peptide PUMA 1 uM, feature gain_16p11.2) “Resistant”; (peptide PUMA 1 uM, feature loss_2q31.1) “Resistant”. Moreover, the direction entry runs as follows: under setting [3], “Resistant”; (peptide PUMA 1 uM, feature loss_10p12.2) “Resistant”.
For `Nc1ncn([C@@H]2O[C@H](CO)[C@@H](O)[C@H]2O)c(=O)n1` [Azacitidine], the direction result by setting is: (Feature CARD11) “Sensitive”; (peptide BAD 0.3 uM, feature CARD11) “Sensitive”; (peptide BAD 0.3 uM, feature MYD88) “Sensitive”; (peptide BAD 0.3 uM, feature loss_19p13.11) “Sensitive”; (peptide BIM 0.01 uM, feature BIRC3) “Resistant”; under setting [5], “Resistant”. Besides, the direction result (peptide BIM 0.01 uM, feature ITIH2) is on record as “Resistant”; the direction result under setting [6] was “Resistant”; the direction result (peptide BIM 0.01 uM, feature loss_9p21.3) is given as “Resistant”; the direction result (peptide BIM 0.01 uM, feature loss_17q11.2) is “Resistant”; the direction entry (peptide MS1 2.5 uM, feature BIRC3) is “Sensitive”; the direction result under setting [4] is listed as “Sensitive”. Moreover, the direction result reads like this: (peptide MS1 2.5 uM, feature loss_9p21.3) “Sensitive”; (peptide MS1 2.5 uM, feature loss_17q11.2) “Sensitive”; (peptide MS1 2.5 uM, feature loss_19p13.11) “Sensitive”; (peptide PUMA 1 uM, feature CARD11) “Sensitive”.
